Literature values, collected in patent US11883460B2, “Antibiotic compositions for treating bacterial infections” (AGENCY FOR SCIENCE, TECHNOLOGY AND RESEARCH, priority 2014, dated 2024).

Conditions: compared with colistimethate sodium

For Colistin sulfate, the “Stability in human plasma” value is given as “more stable than colistimethate sodium”.
